# Values joined by “and” are separate entries in the source; they are usually repeats but may differ in a detail not shown here. Identical values can stand only once.
# Columns and labels:
# Format in all cases: cell-based, human
# [1] = system: AGS cells; assay: Immunofluorescence of γ-H2AX and 53BP1 foci; settings: for foci/cell, share of cells in class (Suma 100) / foci/cell, number of cells in class: Fig. 3B; for foci/cell, number of cells in class: cell count
# Method: (§1) Cells (7 × 10^4) were seeded on 20 mm coverslips. […] Coverslips were incubated for 1 h with the primary antibody (Cell Signaling: H2AX Ser139 (#2595) and 53BP1 (#4937)) at room temperature, followed by a 1 h incubation with the appropriate secondary antibody. DNA was stained with DAPI. Fluorescence microscopy was performed using a NIKON Eclipse 90i. The image analysis was performed using the software program Nikon NIS-Elements and Image J.
# [2] = system: PANC1 cells; assay: Immunofluorescence of γ-H2AX and 53BP1 foci; settings: for foci/cell, share of cells in class (Suma 100) / foci/cell, number of cells in class: PANC1, Fig. 3B; for foci/cell, number of cells in class: cell count
# Method: as §1
# [3] = system: PANC1 cells; assay: Clonogenic (CFU) assay after 1, 3, 24 h pre-treatment
# Method: For the clonogenic assay we used two different approaches. […] Then, cells were cultured in a 6-well plate at a very low concentration (2 × 10^3 cells per well) and incubated for 10 days. […] To evaluate the role of ROS in cell proliferation, we supplemented the growth medium with 0.5 mM NAC. After 10 days, the cells were fixed with 1% glutaraldehyde and stained with 0.1% crystal violet. The number of colonies was quantified directly and reflected as CFUs: Colony Forming Units.
# [4] = system: AGS cells; assay: SA-β-Gal histochemical staining; settings: Fig. S4A
# Method: SA-β-Gal activity was measured following two different approaches. (i) AGS, MKN45 and PANC1 cells (5 × 10^4) were seeded in 24-multiwell dishes and incubated overnight. […] For flow cytometry cell senescence detection, cells were tripsinized, fixed for 15 min with PFA 4% and stained with the CellEvent Senescense Green Flow Cytometry Assay Kit (C10840, Invitrogen) according to manufacturer’s instructions. CellEvent Senescense Green Probe was used at a 1:500 dilution and fluorescence was detected using the filter (Ex488nm/Em530/30) BL1 with a 4-laser Attune NxT Acoustic Cytometer (Thermo Fisher Scientific). […] After 3 h, the treatments were removed, new supplemented medium was added, and cells were incubated for an additional 24 h. Finally, SA-β-Gal staining was performed using the Senescence Cells Histochemical Staining Kit (CS0030-1KT) according to the manufacturer’s instructions.
# [5] = system: MKN45 cells; assay: RT-qPCR gene expression (CDKN1A, IL6, MMP1, MAP2K3, SOD1, SOD2, CAT, MKI67, TNFRSF10D)
# Method: (§2) Total cellular RNA was extracted using Tri-Reagent (Life Technologies), following the manufacturer’s instructions. One μg of total RNA was primed with random primers and cDNA synthesized with an M-MLV reverse transcriptase following the manufacturer’s instructions (Promega). Target genes were amplified using a SYBR Green polymerase chain reaction assay, working with the specific primer sets listed in Table 4.
# (§3) Thermal cycling of the qPCR reaction was initiated with a denaturation step at 95 °C for 10 min. The process consisted of 40 cycles (denaturation at 95 °C for 15 sec, annealing at 60 °C for 30 sec, and elongation at 75 °C for 30 sec). PCR amplifications were carried out in a StepOne Real‐time PCR System (Applied Biosystems, 4376357). Relative mRNA levels were calculated by the delta-Ct method (2-ΔΔCt), where each 1-Ct difference equals a two-fold change in transcript abundance, using GAPDH as an endogenous gene reference. ΔΔCT represents the difference between the mean ΔCT value of the cells tested and the mean ΔCT value of the calibrator, both calculated for the same PCR run.
# [6] = system: AGS cells; assay: as above
# Method: as §2, §3
# [7] = system: PANC1 cells; assay: as above
# Method: as §2, §3
# [8] = system: MKN45 cells; assay: Immunofluorescence of γ-H2AX foci; settings: Fig. 3B; for foci/cell, number of cells in class: cell count
# Method: as §1
# [9] = MKN45, Fig. 3C, replicate values
# [10] = PANC1, Fig. 3C, replicate values
smiles,measurement,setting,value
"[NH2][Pt]([NH2])([Cl])[Cl] [CDDP, cisplatin, reference compound]","foci/cell, share of cells in class (Suma 100)",[1]; class 16-30 foci/cell,23.0769
same,"foci/cell, number of cells in class",[1]; class 16-30 foci/cell,18
same,"foci/cell, share of cells in class (Suma 100)",[1]; class 31-45 foci/cell,26.9231
same,"foci/cell, number of cells in class",[1]; class 31-45 foci/cell,21
same,"foci/cell, share of cells in class (Suma 100)",[1]; class 46-60 foci/cell,21.7949
same,"foci/cell, number of cells in class",[1]; class 46-60 foci/cell,17
same,"foci/cell, share of cells in class (Suma 100)",[1]; class <15 foci/cell,21.7949
same,"foci/cell, number of cells in class",[1]; class <15 foci/cell,17
same,"foci/cell, share of cells in class (Suma 100)",[1]; class >61 foci/cell,6.41
same,"foci/cell, number of cells in class",[1]; class >61 foci/cell,5
same,foci/cell: number of cells with 16-30 foci,"[1]; Fig. S4B, cell counts",35
same,foci/cell: number of cells with 31-45 foci,"[1]; Fig. S4B, cell counts",15
same,foci/cell: number of cells with 46-60 foci,"[1]; Fig. S4B, cell counts",5
same,foci/cell: number of cells with <15 foci,"[1]; Fig. S4B, cell counts",45
same,foci/cell: number of cells with >61 foci,"[1]; Fig. S4B, cell counts",4
same,foci/cell: share of cells with 16-30 foci (Suma 100),"[1]; Fig. S4B, share of N",33.6538
same,foci/cell: share of cells with 31-45 foci (Suma 100),"[1]; Fig. S4B, share of N",14.4231
same,foci/cell: share of cells with 46-60 foci (Suma 100),"[1]; Fig. S4B, share of N",4.808
same,foci/cell: share of cells with <15 foci (Suma 100),"[1]; Fig. S4B, share of N",43.2692
same,foci/cell: share of cells with >61 foci (Suma 100),"[1]; Fig. S4B, share of N",3.846
same,foci/cell: number of cells with 16-30 foci,"[2]; PANC1, Fig. S4B, cell counts",32
same,foci/cell: number of cells with 31-45 foci,"[2]; PANC1, Fig. S4B, cell counts",36
same,foci/cell: number of cells with 46-60 foci,"[2]; PANC1, Fig. S4B, cell counts",25
same,foci/cell: number of cells with <15 foci,"[2]; PANC1, Fig. S4B, cell counts",21
same,foci/cell: number of cells with >61 foci,"[2]; PANC1, Fig. S4B, cell counts",22
same,foci/cell: share of cells with 16-30 foci (Suma 100),"[2]; PANC1, Fig. S4B, share of N",23.5294
same,foci/cell: share of cells with 31-45 foci (Suma 100),"[2]; PANC1, Fig. S4B, share of N",26.4706
same,foci/cell: share of cells with 46-60 foci (Suma 100),"[2]; PANC1, Fig. S4B, share of N",18.3824
same,foci/cell: share of cells with <15 foci (Suma 100),"[2]; PANC1, Fig. S4B, share of N",15.4412
same,foci/cell: share of cells with >61 foci (Suma 100),"[2]; PANC1, Fig. S4B, share of N",16.1765
same,"foci/cell, share of cells in class (Suma 100)",[2]; class 16-30 foci/cell,10
same,"foci/cell, number of cells in class",[2]; class 16-30 foci/cell,11
same,"foci/cell, share of cells in class (Suma 100)",[2]; class 31-45 foci/cell,23.6364
same,"foci/cell, number of cells in class",[2]; class 31-45 foci/cell,26
same,"foci/cell, share of cells in class (Suma 100)",[2]; class 46-60 foci/cell,20
same,"foci/cell, number of cells in class",[2]; class 46-60 foci/cell,22
same,"foci/cell, share of cells in class (Suma 100)",[2]; class <15 foci/cell,6.364
same,"foci/cell, number of cells in class",[2]; class <15 foci/cell,7
same,"foci/cell, share of cells in class (Suma 100)",[2]; class >61 foci/cell,40
same,"foci/cell, number of cells in class",[2]; class >61 foci/cell,44
same,CFUs,"[3]; PANC1, 1 h pre-treatment at IC50, colonies after 10 days",160 and 132 and 144
same,CFUs,"[3]; PANC1, 3 h pre-treatment at IC50, colonies after 10 days",20 and 28 and 36
same,Fold change % Senescence,[4],58.33% and 50% and 67.21%
same,MKI67 Fold change vs GAPDH,"[5]; MKN45, Fig. S4C",0.592 fold change and 0.4427 fold change and 0.7916 fold change
same,TNFRSF10D Fold change vs GAPDH,"[5]; MKN45, Fig. S4C",0.5932 fold change and 0.4461 fold change and 0.7888 fold change
same,CAT (Fold change vs GAPDH),"[5]; MKN45, mRNA vs Control = 1",1.496 Fold change and 1.261 Fold change and 1.775 Fold change
same,SOD1 (Fold change vs GAPDH),"[5]; MKN45, mRNA vs Control = 1",1.684 Fold change and 1.471 Fold change and 1.928 Fold change
same,SOD2 (Fold change vs GAPDH),"[5]; MKN45, mRNA vs Control = 1",5.8142 Fold change and 4.057 Fold change and 3.7805 Fold change
same,"CDKN1A, Fold change vs GAPDH",[5]; [9],4.774 fold change and 4.07 fold change and 5.599 fold change
same,"IL-6, Fold change vs GAPDH",[5]; [9],1.95 fold change and 3.642 fold change and 4.704 fold change
same,"MMP-1, Fold change vs GAPDH",[5]; [9],3.347 fold change and 2.194 fold change and 5.104 fold change
same,Fold change MAP2K3 vs GAPDH,"[5]; MKN45, Fig. 4B, replicate values",2.858 fold change and 2.103 fold change and 3.884 fold change
same,"CDKN1A, Fold change vs GAPDH","[6]; Fig. 3C, replicate values",19.195 fold change and 16.0881 fold change and 22.9019 fold change
same,"IL-6, Fold change vs GAPDH","[6]; Fig. 3C, replicate values",0.7415 fold change and 0.5536 fold change and 0.449 fold change
same,"MMP-1, Fold change vs GAPDH","[6]; Fig. 3C, replicate values",4.748 fold change and 3.523 fold change and 6.399 fold change
same,Fold change MAP2K3 vs GAPDH,"[6]; Fig. 4B, replicate values",3.776 fold change and 3.2606 fold change and 4.374 fold change
same,TNFRSF10D Fold change vs GAPDH,[6]; Fig. S4C,10.7682 fold change and 9.829 fold change and 11.7968 fold change
same,CAT (Fold change vs GAPDH),[6]; mRNA vs Control = 1,0.4339 Fold change and 0.4032 Fold change and 0.467 Fold change
same,SOD1 (Fold change vs GAPDH),[6]; mRNA vs Control = 1,1.248 Fold change and 1.114 Fold change and 1.397 Fold change
same,SOD2 (Fold change vs GAPDH),[6]; mRNA vs Control = 1,1.83 Fold change and 1.608 Fold change and 2.083 Fold change
same,MKI67 Fold change vs GAPDH,"[7]; PANC1, Fig. S4C",0.584 fold change and 0.4541 fold change and 0.7511 fold change
same,TNFRSF10D Fold change vs GAPDH,"[7]; PANC1, Fig. S4C",2.899 fold change and 2.5476 fold change and 3.299 fold change
same,CAT (Fold change vs GAPDH),"[7]; PANC1, mRNA vs Control = 1",0.9643 Fold change and 0.7898 Fold change and 1.177 Fold change
same,SOD1 (Fold change vs GAPDH),"[7]; PANC1, mRNA vs Control = 1",1.201 Fold change and 1.761 Fold change and 1.789 Fold change
same,SOD2 (Fold change vs GAPDH),"[7]; PANC1, mRNA vs Control = 1",0.4267 Fold change and 0.395 Fold change and 0.4609 Fold change
same,"CDKN1A, Fold change vs GAPDH",[7]; [10],2.689 fold change and 2.397 fold change and 3.018 fold change
same,"IL-6, Fold change vs GAPDH",[7]; [10],6.723 fold change and 5.78 fold change and 7.821 fold change
same,"MMP-1, Fold change vs GAPDH",[7]; [10],3.584 fold change and 2.804 fold change and 4.175 fold change
same,Fold change MAP2K3 vs GAPDH,"[7]; PANC1, Fig. 4B, replicate values",2.138 fold change and 1.804 fold change and 2.534 fold change
same,"foci/cell, share of cells in class (Suma 100)",[8]; class 16-30 foci/cell,6.667
same,"foci/cell, number of cells in class",[8]; class 16-30 foci/cell,4
same,"foci/cell, share of cells in class (Suma 100)",[8]; class 31-45 foci/cell,13.3333
same,"foci/cell, number of cells in class",[8]; class 31-45 foci/cell,8
same,"foci/cell, share of cells in class (Suma 100)",[8]; class 46-60 foci/cell,16.6667
same,"foci/cell, number of cells in class",[8]; class 46-60 foci/cell,10
same,"foci/cell, share of cells in class (Suma 100)",[8]; class <15 foci/cell,0
same,"foci/cell, number of cells in class",[8]; class <15 foci/cell,0
same,"foci/cell, share of cells in class (Suma 100)",[8]; class >61 foci/cell,63.3333
same,"foci/cell, number of cells in class",[8]; class >61 foci/cell,38

# — publication PMC10959927, “Platinum iodido drugs show potential anti-tumor activity, affecting cancer cell metabolism and inducing ROS and senescence in gastrointestinal cancer cells” (Communications Biology, 2024)
